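A five-concentration, 48-hour dose response in 96-well plates underlies each endpoint, interpolated linearly between surrounding concentrations. TGI: total growth inhibition.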
Tested on: ACHN renal
Experiment: NCI tumour cell line growth inhibition, 48 h

Compound	TGI
CC1(C)CN=C(c2ccc3c(c2)Cc2cc(C4=NCC(C)(C)N4)ccc2-3)N1	> 100 µM
COc1cc(OCc2nc3ccccc3n3cccc23)cc(OC)c1OC	> 100 µM
CC(=O)C(I(OS(=O)(=O)c1ccc(C)cc1)c1ccccc1)=P(c1ccccc1)(c1ccccc1)c1ccccc1	> 100 µM
ClC1(Cl)C(c2ccccc2)C1c1ccccc1 (configuration not stated)	89.7 µM
CN1C2CCC1CC(CCOC(c1ccc(F)cc1)c1ccc(F)cc1)C2 (configuration not stated)	30.8 µM
O=C(c1cc(Cl)cc(Cl)c1)N(C(=O)N1CCN(c2ccccc2)CC1)c1ccccc1	> 100 µM
CCN(CC)C1Oc2cc3c(cc2C(c2ccc(OC)cc2)C1C)OCO3 (configuration not stated)	59.6 µM

Tested on: OVCAR-8 ovarian
Experiment: NCI tumour cell line growth inhibition, 48 h

Compound	TGI
CC1(C)CN=C(c2ccc3c(c2)Cc2cc(C4=NCC(C)(C)N4)ccc2-3)N1	> 100 µM
COc1cc(OCc2nc3ccccc3n3cccc23)cc(OC)c1OC	> 100 µM
CC(=O)C(I(OS(=O)(=O)c1ccc(C)cc1)c1ccccc1)=P(c1ccccc1)(c1ccccc1)c1ccccc1	> 100 µM
ClC1(Cl)C(c2ccccc2)C1c1ccccc1 (configuration not stated)	77.4 µM
CN1C2CCC1CC(CCOC(c1ccc(F)cc1)c1ccc(F)cc1)C2 (configuration not stated)	32.1 µM
O=C(c1cc(Cl)cc(Cl)c1)N(C(=O)N1CCN(c2ccccc2)CC1)c1ccccc1	> 100 µM
CCN(CC)C1Oc2cc3c(cc2C(c2ccc(OC)cc2)C1C)OCO3 (configuration not stated)	44.9 µM

Tested on: SK-OV-3 ovarian
Experiment: NCI tumour cell line growth inhibition, 48 h

Compound	TGI
CC1(C)CN=C(c2ccc3c(c2)Cc2cc(C4=NCC(C)(C)N4)ccc2-3)N1	> 100 µM
COc1cc(OCc2nc3ccccc3n3cccc23)cc(OC)c1OC	> 100 µM
CC(=O)C(I(OS(=O)(=O)c1ccc(C)cc1)c1ccccc1)=P(c1ccccc1)(c1ccccc1)c1ccccc1	> 100 µM
ClC1(Cl)C(c2ccccc2)C1c1ccccc1 (configuration not stated)	55.7 µM
CN1C2CCC1CC(CCOC(c1ccc(F)cc1)c1ccc(F)cc1)C2 (configuration not stated)	31.2 µM
O=C(c1cc(Cl)cc(Cl)c1)N(C(=O)N1CCN(c2ccccc2)CC1)c1ccccc1	> 100 µM
CCN(CC)C1Oc2cc3c(cc2C(c2ccc(OC)cc2)C1C)OCO3 (configuration not stated)	97.4 µM

Tested on: SNB-75 CNS
Experiment: NCI tumour cell line growth inhibition, 48 h

Compound	TGI
CC1(C)CN=C(c2ccc3c(c2)Cc2cc(C4=NCC(C)(C)N4)ccc2-3)N1	> 100 µM
COc1cc(OCc2nc3ccccc3n3cccc23)cc(OC)c1OC	> 100 µM
ClC1(Cl)C(c2ccccc2)C1c1ccccc1 (configuration not stated)	> 100 µM
CN1C2CCC1CC(CCOC(c1ccc(F)cc1)c1ccc(F)cc1)C2 (configuration not stated)	30.4 µM
O=C(c1cc(Cl)cc(Cl)c1)N(C(=O)N1CCN(c2ccccc2)CC1)c1ccccc1	> 100 µM
CCN(CC)C1Oc2cc3c(cc2C(c2ccc(OC)cc2)C1C)OCO3 (configuration not stated)	59.7 µM

Tested on: IGROV1 ovarian
Experiment: NCI tumour cell line growth inhibition, 48 h

Compound	TGI
CC1(C)CN=C(c2ccc3c(c2)Cc2cc(C4=NCC(C)(C)N4)ccc2-3)N1	> 100 µM
COc1cc(OCc2nc3ccccc3n3cccc23)cc(OC)c1OC	> 100 µM
CC(=O)C(I(OS(=O)(=O)c1ccc(C)cc1)c1ccccc1)=P(c1ccccc1)(c1ccccc1)c1ccccc1	73.5 µM
CN1C2CCC1CC(CCOC(c1ccc(F)cc1)c1ccc(F)cc1)C2 (configuration not stated)	32.1 µM
CCN(CC)C1Oc2cc3c(cc2C(c2ccc(OC)cc2)C1C)OCO3 (configuration not stated)	86.9 µM

Tested on: UACC-62 melanoma
Experiment: NCI tumour cell line growth inhibition, 48 h

Compound	TGI
CC1(C)CN=C(c2ccc3c(c2)Cc2cc(C4=NCC(C)(C)N4)ccc2-3)N1	69.5 µM
COc1cc(OCc2nc3ccccc3n3cccc23)cc(OC)c1OC	> 72.3 µM
CC(=O)C(I(OS(=O)(=O)c1ccc(C)cc1)c1ccccc1)=P(c1ccccc1)(c1ccccc1)c1ccccc1	17 µM
ClC1(Cl)C(c2ccccc2)C1c1ccccc1 (configuration not stated)	> 100 µM
O=C(c1cc(Cl)cc(Cl)c1)N(C(=O)N1CCN(c2ccccc2)CC1)c1ccccc1	> 100 µM
CCN(CC)C1Oc2cc3c(cc2C(c2ccc(OC)cc2)C1C)OCO3 (configuration not stated)	42.1 µM

Tested on: HCC-2998 colon
Experiment: NCI tumour cell line growth inhibition, 48 h

Compound	TGI
CC1(C)CN=C(c2ccc3c(c2)Cc2cc(C4=NCC(C)(C)N4)ccc2-3)N1	74.1 µM
COc1cc(OCc2nc3ccccc3n3cccc23)cc(OC)c1OC	> 88.3 µM
CC(=O)C(I(OS(=O)(=O)c1ccc(C)cc1)c1ccccc1)=P(c1ccccc1)(c1ccccc1)c1ccccc1	39 µM
ClC1(Cl)C(c2ccccc2)C1c1ccccc1 (configuration not stated)	30 µM
O=C(c1cc(Cl)cc(Cl)c1)N(C(=O)N1CCN(c2ccccc2)CC1)c1ccccc1	> 100 µM
CCN(CC)C1Oc2cc3c(cc2C(c2ccc(OC)cc2)C1C)OCO3 (configuration not stated)	35.3 µM

Tested on: UO-31 renal
Experiment: NCI tumour cell line growth inhibition, 48 h

Compound	TGI
CC1(C)CN=C(c2ccc3c(c2)Cc2cc(C4=NCC(C)(C)N4)ccc2-3)N1	> 100 µM
COc1cc(OCc2nc3ccccc3n3cccc23)cc(OC)c1OC	> 89.6 µM
CC(=O)C(I(OS(=O)(=O)c1ccc(C)cc1)c1ccccc1)=P(c1ccccc1)(c1ccccc1)c1ccccc1	> 100 µM
ClC1(Cl)C(c2ccccc2)C1c1ccccc1 (configuration not stated)	> 100 µM
CN1C2CCC1CC(CCOC(c1ccc(F)cc1)c1ccc(F)cc1)C2 (configuration not stated)	27.9 µM
O=C(c1cc(Cl)cc(Cl)c1)N(C(=O)N1CCN(c2ccccc2)CC1)c1ccccc1	> 100 µM
CCN(CC)C1Oc2cc3c(cc2C(c2ccc(OC)cc2)C1C)OCO3 (configuration not stated)	64.9 µM

Tested on: MALME-3M melanoma
Experiment: NCI tumour cell line growth inhibition, 48 h

Compound	TGI
CC1(C)CN=C(c2ccc3c(c2)Cc2cc(C4=NCC(C)(C)N4)ccc2-3)N1	61.2 µM
COc1cc(OCc2nc3ccccc3n3cccc23)cc(OC)c1OC	> 74.4 µM
CC(=O)C(I(OS(=O)(=O)c1ccc(C)cc1)c1ccccc1)=P(c1ccccc1)(c1ccccc1)c1ccccc1	30 µM
CN1C2CCC1CC(CCOC(c1ccc(F)cc1)c1ccc(F)cc1)C2 (configuration not stated)	29.3 µM
O=C(c1cc(Cl)cc(Cl)c1)N(C(=O)N1CCN(c2ccccc2)CC1)c1ccccc1	> 100 µM
CCN(CC)C1Oc2cc3c(cc2C(c2ccc(OC)cc2)C1C)OCO3 (configuration not stated)	37.3 µM

Tested on: OVCAR-5 ovarian
Experiment: NCI tumour cell line growth inhibition, 48 h

Compound	TGI
CC1(C)CN=C(c2ccc3c(c2)Cc2cc(C4=NCC(C)(C)N4)ccc2-3)N1	> 100 µM
COc1cc(OCc2nc3ccccc3n3cccc23)cc(OC)c1OC	> 100 µM
CC(=O)C(I(OS(=O)(=O)c1ccc(C)cc1)c1ccccc1)=P(c1ccccc1)(c1ccccc1)c1ccccc1	60.2 µM
ClC1(Cl)C(c2ccccc2)C1c1ccccc1 (configuration not stated)	> 100 µM
CN1C2CCC1CC(CCOC(c1ccc(F)cc1)c1ccc(F)cc1)C2 (configuration not stated)	36.7 µM
O=C(c1cc(Cl)cc(Cl)c1)N(C(=O)N1CCN(c2ccccc2)CC1)c1ccccc1	> 100 µM
CCN(CC)C1Oc2cc3c(cc2C(c2ccc(OC)cc2)C1C)OCO3 (configuration not stated)	58.9 µM

Tested on: MOLT-4 leukemia
Experiment: NCI tumour cell line growth inhibition, 48 h

Compound	TGI
CC1(C)CN=C(c2ccc3c(c2)Cc2cc(C4=NCC(C)(C)N4)ccc2-3)N1	> 100 µM
COc1cc(OCc2nc3ccccc3n3cccc23)cc(OC)c1OC	14.3 µM
CC(=O)C(I(OS(=O)(=O)c1ccc(C)cc1)c1ccccc1)=P(c1ccccc1)(c1ccccc1)c1ccccc1	> 100 µM
ClC1(Cl)C(c2ccccc2)C1c1ccccc1 (configuration not stated)	> 100 µM
CN1C2CCC1CC(CCOC(c1ccc(F)cc1)c1ccc(F)cc1)C2 (configuration not stated)	44 µM
O=C(c1cc(Cl)cc(Cl)c1)N(C(=O)N1CCN(c2ccccc2)CC1)c1ccccc1	> 100 µM
CCN(CC)C1Oc2cc3c(cc2C(c2ccc(OC)cc2)C1C)OCO3 (configuration not stated)	41.8 µM

Tested on: NCI-H460 lung
Experiment: NCI tumour cell line growth inhibition, 48 h

Compound	TGI
CC1(C)CN=C(c2ccc3c(c2)Cc2cc(C4=NCC(C)(C)N4)ccc2-3)N1	> 100 µM
COc1cc(OCc2nc3ccccc3n3cccc23)cc(OC)c1OC	> 100 µM
CC(=O)C(I(OS(=O)(=O)c1ccc(C)cc1)c1ccccc1)=P(c1ccccc1)(c1ccccc1)c1ccccc1	> 100 µM
ClC1(Cl)C(c2ccccc2)C1c1ccccc1 (configuration not stated)	51.2 µM
CN1C2CCC1CC(CCOC(c1ccc(F)cc1)c1ccc(F)cc1)C2 (configuration not stated)	32.2 µM
O=C(c1cc(Cl)cc(Cl)c1)N(C(=O)N1CCN(c2ccccc2)CC1)c1ccccc1	> 100 µM
CCN(CC)C1Oc2cc3c(cc2C(c2ccc(OC)cc2)C1C)OCO3 (configuration not stated)	37.2 µM

Tested on: M14 melanoma
Experiment: NCI tumour cell line growth inhibition, 48 h

Compound	TGI
CC1(C)CN=C(c2ccc3c(c2)Cc2cc(C4=NCC(C)(C)N4)ccc2-3)N1	> 100 µM
COc1cc(OCc2nc3ccccc3n3cccc23)cc(OC)c1OC	> 78.3 µM
CC(=O)C(I(OS(=O)(=O)c1ccc(C)cc1)c1ccccc1)=P(c1ccccc1)(c1ccccc1)c1ccccc1	59.3 µM
ClC1(Cl)C(c2ccccc2)C1c1ccccc1 (configuration not stated)	90.7 µM
CN1C2CCC1CC(CCOC(c1ccc(F)cc1)c1ccc(F)cc1)C2 (configuration not stated)	32.5 µM
O=C(c1cc(Cl)cc(Cl)c1)N(C(=O)N1CCN(c2ccccc2)CC1)c1ccccc1	> 100 µM
CCN(CC)C1Oc2cc3c(cc2C(c2ccc(OC)cc2)C1C)OCO3 (configuration not stated)	51.4 µM

Tested on: MCF7 breast
Experiment: NCI tumour cell line growth inhibition, 48 h

Compound	TGI
CC1(C)CN=C(c2ccc3c(c2)Cc2cc(C4=NCC(C)(C)N4)ccc2-3)N1	86.5 µM
COc1cc(OCc2nc3ccccc3n3cccc23)cc(OC)c1OC	37.6 µM
CC(=O)C(I(OS(=O)(=O)c1ccc(C)cc1)c1ccccc1)=P(c1ccccc1)(c1ccccc1)c1ccccc1	> 100 µM
ClC1(Cl)C(c2ccccc2)C1c1ccccc1 (configuration not stated)	> 100 µM
O=C(c1cc(Cl)cc(Cl)c1)N(C(=O)N1CCN(c2ccccc2)CC1)c1ccccc1	> 100 µM
CCN(CC)C1Oc2cc3c(cc2C(c2ccc(OC)cc2)C1C)OCO3 (configuration not stated)	47.7 µM

Tested on: 786-0 renal
Experiment: NCI tumour cell line growth inhibition, 48 h

Compound	TGI
CC1(C)CN=C(c2ccc3c(c2)Cc2cc(C4=NCC(C)(C)N4)ccc2-3)N1	> 100 µM
COc1cc(OCc2nc3ccccc3n3cccc23)cc(OC)c1OC	> 74.3 µM
CC(=O)C(I(OS(=O)(=O)c1ccc(C)cc1)c1ccccc1)=P(c1ccccc1)(c1ccccc1)c1ccccc1	> 100 µM
ClC1(Cl)C(c2ccccc2)C1c1ccccc1 (configuration not stated)	> 100 µM
CN1C2CCC1CC(CCOC(c1ccc(F)cc1)c1ccc(F)cc1)C2 (configuration not stated)	30.7 µM
O=C(c1cc(Cl)cc(Cl)c1)N(C(=O)N1CCN(c2ccccc2)CC1)c1ccccc1	> 100 µM
